# Experimental data taken from patent US20070082892A1, “Benzotriazepine derivatives and their use as gastrin and cholecystokinin receptor ligands” (James Black Foundation Limited, priority 2003, published 2007).
# Key:
# human CCK1-receptor = target: T1, human CCK1-receptor (Homo sapiens, UniProt P32238); test: CCK1 radioligand binding, displacement of [3H]-L-364,718 in CHO-K1 cells; conditions: displacement of [3H]-L-364,718, CHO-K1 cells with cloned human CCK1 receptor; S.E.M's on pKi are ±≦0.1
# T1 construct: expressed in transfected cells; host or cells: CHO-K1
# T1 sequence (P32238 1-428): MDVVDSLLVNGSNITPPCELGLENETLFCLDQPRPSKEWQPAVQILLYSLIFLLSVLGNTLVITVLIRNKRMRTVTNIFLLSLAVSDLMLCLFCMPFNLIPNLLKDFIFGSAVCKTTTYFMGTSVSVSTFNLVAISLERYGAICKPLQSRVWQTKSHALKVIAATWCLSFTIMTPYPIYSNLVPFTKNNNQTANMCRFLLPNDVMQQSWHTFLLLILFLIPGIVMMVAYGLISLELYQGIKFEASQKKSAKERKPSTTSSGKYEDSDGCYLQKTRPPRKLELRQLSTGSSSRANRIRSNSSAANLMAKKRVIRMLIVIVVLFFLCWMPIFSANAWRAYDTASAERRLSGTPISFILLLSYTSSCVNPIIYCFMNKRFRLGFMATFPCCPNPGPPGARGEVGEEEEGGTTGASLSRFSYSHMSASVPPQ
# Procedure: The CCK1 activity of the ligands was assessed in a radioligand binding study, looking at the displacement of [^3H]-L-364,718 from sites in CHO-K1 cells into which the human CCK1-receptor sequence has been cloned. S.E.M's on pKi are ±≦0.1
# gastrin (CCK2) receptor = target: T2, gastrin (CCK2) receptor (Rattus norvegicus, UniProt P30553); test: gastrin (CCK2) antagonist activity in an immature rat stomach assay (pentagastrin-stimulated acid secretion); conditions: isolated immature rat stomach, 60 min incubation, cumulative pentagastrin dose-response curves; read-out: CCK2 pKB ± sem (converted)
# T2 construct: The oesophagus of immature rats (33-50 g, ca. 21 days old) was ligated; from tissue; host or cells: isolated whole stomach of immature rats
# T2 sequence (P30553 1-452): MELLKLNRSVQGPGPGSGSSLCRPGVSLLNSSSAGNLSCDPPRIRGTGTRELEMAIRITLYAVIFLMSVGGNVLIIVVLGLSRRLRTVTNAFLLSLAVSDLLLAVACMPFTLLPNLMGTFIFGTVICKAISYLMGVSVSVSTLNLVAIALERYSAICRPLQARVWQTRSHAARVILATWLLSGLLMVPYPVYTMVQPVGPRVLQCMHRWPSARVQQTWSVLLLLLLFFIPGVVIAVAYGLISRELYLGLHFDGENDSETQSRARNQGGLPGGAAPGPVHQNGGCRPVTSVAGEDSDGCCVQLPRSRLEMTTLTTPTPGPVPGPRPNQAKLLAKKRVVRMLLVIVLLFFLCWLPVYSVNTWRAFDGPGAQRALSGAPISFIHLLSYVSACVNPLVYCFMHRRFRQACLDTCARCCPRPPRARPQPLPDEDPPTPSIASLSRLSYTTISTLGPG
# Procedure: Certain compounds of the examples were tested for gastrin (CCK2) antagonist activity in an immature rat stomach assay.
# The oesophagus of immature rats (33-50 g, ca. 21 days old) was ligated at the level of the cardiac sphincter and the duodenal sphincter was cannulated. The stomach was excised and flushed with ca. 1 ml of unbuffered physiological saline solution. The fundus was punctured and cannulated. A further 4-5 ml of unbuffered solution was flushed through the stomach to ensure the preparation was not leaking. […] The stomach was continuously perfused at a rate of 1 ml min^−1 with unbuffered solution gassed with 100% O2 with the perfusate passing over an internally referenced pH-electrode fixed 12 cm above the stomach.
# After 120 min of stabilisation the drugs were added directly to the serosal solution in the organ bath and after a further 60 min cumulative pentagastrin dose-response curves were started.
compound,measurement,setting,value
"O=C(CN1C(=O)N(CC(=O)N2CCCC2)c2ccccc2N(c2ccccc2)C1=O)Nc1ccc(F)cc1 [Example 2, 2-[2,4-Dioxo-1-(2-oxo-2-pyrrolidin-1-yl-ethyl)-5-phenyl-1,2,4,5-tetrahydro-1,3,5-benzotriazepin-3-yl]-N-(4-fluoro-phenyl)-acetamide]",Ki,human CCK1-receptor,7.94 µM
same,Kb,gastrin (CCK2) receptor,2.24 µM
"O=C(CN1C(=O)N(CC(=O)N2CCCC2)c2ccccc2N(c2ccccc2)C1=O)Nc1cccc(C(=O)O)c1 [Example 3, 3-{2-[2,4-Dioxo-1-(2-oxo-2-pyrrolidin-1-yl-ethyl)-5-phenyl-1,2,4,5-tetrahydro-1,3,5-benzotriazepin-3-yl]-acetylamino}-benzoic acid]",Ki,human CCK1-receptor,> 10 µM
same,Kb,gastrin (CCK2) receptor,0.708 µM
"CC(C)(C)C(=O)CN1C(=O)N(CC(=O)Nc2cccc(CC(=O)O)c2)C(=O)N(C2CCCCCC2)c2ccccc21 [Example 8, (3-{2-[1-Cycloheptyl-5-(3,3-dimethyl-2-oxo-butyl)-2,4-dioxo-1,2,4,5-tetrahydro-1,3,5-benzotriazepin-3-yl]-acetylamino}-phenyl)-acetic acid]",Ki,human CCK1-receptor,3.98 µM
same,Kb,gastrin (CCK2) receptor,0.0437 µM
CC(C)(C)C(=O)CN1C(=O)N(CC(=O)Nc2cccc(SCC(=O)OCc3ccccc3)c2)C(=O)N(C2CCCCCC2)c2ccccc21 [Example 10],Ki,human CCK1-receptor,0.1 µM
same,Kb,gastrin (CCK2) receptor,0.00676 µM
"CC(C)(C)C(=O)CN1C(=O)N(CC(=O)Nc2cccc(SCC(=O)O)c2)C(=O)N(C2CCCCCC2)c2ccccc21 [Example 11, (3-{2-[1-Cycloheptyl-5-(3,3-dimethyl-2-oxo-butyl)-2,4-dioxo-1,2,4,5-tetrahydro-1,3,5-benzotriazepin-3-yl]-acetylamino}-phenylsulfanyl)-acetic acid]",Ki,human CCK1-receptor,0.251 µM
same,Kb,gastrin (CCK2) receptor,0.00447 µM
"CC(C)(C)C(=O)CN1C(=O)N(CC(=O)Nc2cccc(-c3nc(=O)o[nH]3)c2)C(=O)N(C2CCCCCC2)c2ccccc21 [Example 12, 2-[1-Cycloheptyl-5-(3,3-dimethyl-2-oxo-butyl)-2,4-dioxo-1,2,4,5-tetrahydro-1,3,5-benzotriazepin-3-yl]-N-[3-(5-oxo-2,5-dihydro-[1,2,4]-oxadiazol-3-yl)-phenyl]-acetamide]",Ki,human CCK1-receptor,0.126 µM
same,Kb,gastrin (CCK2) receptor,0.00324 µM
"CNc1cccc(NC(=O)CN2C(=O)N(CC(=O)C(C)(C)C)c3ccccc3N(C3CCCCC3)C2=O)c1 [Example 13, 2-[1-Cyclohexyl-5-(3,3-dimethyl-2-oxo-butyl)-2,4-dioxo-1,2,4,5-tetrahydro-1,3,5-benzotriazepin-3-yl]-N-(3-methylamino-phenyl)-acetamide]",Ki,human CCK1-receptor,2.51 µM
same,Kb,gastrin (CCK2) receptor,0.0195 µM
"CC(C)(C)C(=O)CN1C(=O)N(CC(=O)Nc2cccc(CCC(=O)O)c2)C(=O)N(C2CCCCC2)c2ccccc21 [Example 14, 3-(3-{2-[1-Cyclohexyl-5-(3,3-dimethyl-2-oxo-butyl)-2,4-dioxo-1,2,4,5-tetrahydro-1,3,5-benzotriazepin-3-yl]-acetylamino}-phenyl)-propionic acid]",Ki,human CCK1-receptor,2.51 µM
same,Kb,gastrin (CCK2) receptor,0.0263 µM
"Cc1nc(-c2cccc(NC(=O)CN3C(=O)N(CC(=O)C(C)(C)C)c4ccccc4N(C4CCCCC4)C3=O)c2)cs1 [Example 15, 2-[1-Cyclohexyl-5-(3,3-dimethyl-2-oxo-butyl)-2,4-dioxo-1,2,4,5-tetrahydro-1,3,5-benzotriazepin-3-yl]-N-[3-(2-methyl-thiazol-4-yl)-phenyl]-acetamide]",Ki,human CCK1-receptor,1.58 µM
"CN(c1cccc(NC(=O)CN2C(=O)N(CC(=O)C(C)(C)C)c3ccccc3N(C3CCCCC3)C2=O)c1)c1nn[nH]n1 [Example 16, 2-[1-Cyclohexyl-5-(3,3-dimethyl-2-oxo-butyl)-2,4-dioxo-1,2,4,5-tetrahydro-1,3,5-benzotriazepin-3-yl]-N-{3-[methyl-(2H-tetrazol-5-yl)-amino]-phenyl}-acetamide]",Ki,human CCK1-receptor,2 µM
"CC(C)(C)C(=O)CN1C(=O)N(CCCC(=O)Nc2cccc(-c3nc(=O)o[nH]3)c2)C(=O)N(C2CCCCC2)c2ccccc21 [Example 19, 4-[1-Cyclohexyl-5-(3,3-dimethyl-2-oxo-butyl)-2,4-dioxo-1,2,4,5-tetrahydro-1,3,5-benzotriazepin-3-yl]-N-[3-(5-oxo-2,5-dihydro-[1,2,4]oxadiazol-3-yl)-phenyl]-butyramide]",Kb,gastrin (CCK2) receptor,0.0871 µM
